The results in this text go back to PubChem BioAssay AID1117324 (Cheminformatics & Chemogenomics Research Group (CCRG), …, 2015).

Each structure is given as a SMILES string. The source made the active and inactive calls. The rule behind the calls is not given here. *1 amine or outer side, *2 acyl side, *3 side chain or, on linkers, in order; H or OH if unused. Where a SMILES comes first, the peptide text is derived from it. Bridges are numbered along the chain shown (N, C = ends). Roman numbers before positions name the chains, in order. [ ]: non-standard residue; d: D form. Actinocin(9to1) = Cc1c2oc3c(C)ccc(C(=O)[*:1])c3nc-2c(C(=O)[*:2])c(N)c1=O; NMeV = CN[C@H](C(=O)O)C(C)C; Sar = CNCC(=O)O

The assay relates to VEGF-stimulated ADSC/ECFC co-culture, nuclear area imaging. The assay is described as follows: nuclear area loss in endothelial-stromal co-culture, dose response, cell-based, VEGF stimulation, IC50 (AID 1117324).
With `Nc1c2ccccc2nc2ccccc12`, the IC50 (in general, the concentration that gives 50% inhibition) was > 10 µM (inactive).

`CCCCCCCCCCCCCCCCCCOP(=O)([O-])OC1CC[N+](C)(C)CC1`: the IC50 was > 10 µM (inactive).

For the compound `C[C@H]1O[C@@H](O[C@H]2[C@@H](O)C[C@H](O[C@H]3[C@@H](O)C[C@H](O[C@H]4CC[C@@]5(C)[C@H](CC[C@@H]6[C@@H]5CC[C@]5(C)[C@@H](C7=CC(=O)OC7)CC[C@]65O)C4)O[C@@H]3C)O[C@@H]2C)C[C@H](O)[C@@H]1O`, the IC50 is 0.103 µM.

For the compound `CN(C)c1ccc2nc3ccc(=[N+](C)C)cc-3sc2c1`, the IC50 is > 10 µM (inactive).

As for `CN1CCN(c2cc3c(nn2)Oc2ccccc2N3C)CC1`, the IC50 was > 10 µM (inactive).

For the compound `Cc1cc(C(C#N)c2ccc(Cl)cc2)c(Cl)cc1NC(=O)c1cc(I)cc(I)c1O` (centres undefined), the IC50 was 7.36 µM (inactive).

As to `O=C(O)C1(C(=O)O)CCC1.[NH2-].[NH2-].[Pt+2]`, the IC50 was > 10 µM (inactive).

Turning to `O=C(O)CCCc1ccc(N(CCCl)CCCl)cc1`, the IC50 was > 10 µM (inactive).

Consider `OCCN1CCN(CCCN2c3ccccc3Sc3ccc(Cl)cc32)CC1`, for which the IC50 is > 10 µM (inactive).

Turning to `COc1cccc(CCc2ccccc2OCC(CN(C)C)OC(=O)CCC(=O)O)c1` (centres undefined), the IC50 was > 10 µM (inactive).

Turning to `Cc1c(C(=O)NN2CCCCC2)nn(-c2ccc(Cl)cc2Cl)c1-c1ccc(Cl)cc1`, the IC50 was > 10 µM (inactive).

As to `COCC(=O)O[C@]1(CCN(C)CCCc2nc3ccccc3[nH]2)CCc2cc(F)ccc2[C@@H]1C(C)C`, the IC50 was > 10 µM (inactive).

On to `COc1cc2nc(N3CCN(C(=O)C4COc5ccccc5O4)CC3)nc(N)c2cc1OC` (centres undefined), for which the IC50 is > 10 µM (inactive).

As to `CC1CCC(C(C)C)C(OC(=O)c2ccccc2O)C1` (centres undefined), the IC50 is > 10 µM (inactive).

Regarding `CC(C)=CCOc1ccc(/C=C/C(=O)c2ccc(OCC=C(C)C)cc2OCC(=O)O)cc1`, the IC50 is > 10 µM (inactive).

Turning to `COC(=O)Nc1nc2ccc(C(=O)c3ccccc3)cc2[nH]1`, the IC50 was > 10 µM (inactive).

On to `COc1ccc(/C=N/NC(=O)c2ccncc2)cc1OC`, for which the IC50 is > 10 µM (inactive).

For `Cc1c2oc3c(C)ccc(C(=O)N[C@@H]4C(=O)N[C@H](C(C)C)C(=O)N5CCC[C@H]5C(=O)N(C)CC(=O)N(C)[C@@H](C(C)C)C(=O)O[C@@H]4C)c3nc-2c(C(=O)N[C@@H]2C(=O)N[C@H](C(C)C)C(=O)N3CCC[C@H]3C(=O)N(C)CC(=O)N(C)[C@@H](C(C)C)C(=O)O[C@@H]2C)c(N)c1=O` (I: T[dV]P[Sar][NMeV] / II: T[dV]P[Sar][NMeV]; ester I:1-I:C, II:1-II:C; linker I:N-II:N via Actinocin(9to1)), the IC50 is 0.0403 µM.

Consider `CNS(=O)(=O)CCc1ccc2[nH]cc(C3CCN(C)CC3)c2c1`, for which the IC50 is > 10 µM (inactive).

In the case of `CC[C@]1(O)C[C@H]2CN(CCc3c([nH]c4ccccc34)[C@@](C(=O)OC)(c3cc4c(cc3OC)N(C=O)[C@H]3[C@@](O)(C(=O)OC)[C@H](OC(C)=O)[C@]5(CC)C=CCN6CC[C@]43[C@@H]65)C2)C1`, the IC50 was > 10 µM (inactive).

On to `O=C1C2CC=CCC2C(=O)N1SC(Cl)(Cl)Cl` (centres undefined), for which the IC50 is > 10 µM (inactive).

For `Clc1ccc(CCC(Cn2ccnc2)Sc2c(Cl)cccc2Cl)cc1` (centres undefined), the IC50 was 6.74 µM (inactive).

Consider `CCCCC(=O)O[C@H]1CC[C@H]2[C@@H]3CCc4cc(O)ccc4[C@@H]3CC[C@]12C`, for which the IC50 is 8.3 µM (inactive).

`O[C@@H](c1cc(C(F)(F)F)nc2c(C(F)(F)F)cccc12)[C@H]1CCCCN1`: the IC50 was 8.61 µM (inactive).

As for `CCN(CC)CCNc1ccc(CO)c2sc3ccccc3c(=O)c12`, the IC50 is > 10 µM (inactive).

With `COc1ccccc1OCCNCC(O)COc1cccc2[nH]c3ccccc3c12` (centres undefined), the IC50 was > 10 µM (inactive).

As to `O=C1c2c(O)ccc(O)c2C(=O)c2c(NCCNCCO)ccc(NCCNCCO)c21`, the IC50 was 0.0127 µM.

As to `C[C@H](O)CN(C)C`, the IC50 was > 10 µM (inactive).

On to `CCN(CC)C(=O)c1cccnc1`, for which the IC50 is > 10 µM (inactive).

With `COc1c(C)c2c(c(O)c1C/C=C(\C)CCC(=O)OCCN1CCOCC1)C(=O)OC2`, the IC50 is > 10 µM (inactive).

In the case of `CCCCCCCCCCCCCCCC[N+](C)(C)CC`, the IC50 was 7.58 µM (inactive).

Consider `COc1cccc2c1C(=O)c1c(O)c3c(c(O)c1C2=O)C[C@@](O)(C(=O)CO)C[C@@H]3O[C@H]1C[C@H](N)[C@H](O[C@@H]2CCCCO2)[C@H](C)O1`, for which the half-inhibitory concentration (IC50) was 0.995 µM.

As to `CC(C)Cn1cnc2c1c(=O)n(C)c(=O)n2C`, the IC50 is > 10 µM (inactive).

Turning to `NC1=NCC2c3ccccc3Cc3ccccc3N12` (centres undefined), the IC50 is > 10 µM (inactive).

On to `COP(=S)(OC)Oc1ccc(Sc2ccc(OP(=S)(OC)OC)cc2)cc1`, for which the IC50 is > 10 µM (inactive).

On to `CCc1oc2ccccc2c1C(=O)c1cc(I)c(O)c(I)c1`, for which the IC50 is > 10 µM (inactive).

As for `N[C@@H](Cc1ccc(N(CCCl)CCCl)cc1)C(=O)O`, the IC50 was > 10 µM (inactive).

For the compound `CN1CCN(C2Cc3ccccc3Sc3ccc(Cl)cc32)CC1` (centres undefined), the IC50 is > 10 µM (inactive).

Regarding `C[C@@H]1C[C@H]2[C@@H]3CCC4=CC(=O)C=C[C@]4(C)[C@@]3(Cl)[C@@H](O)C[C@]2(C)[C@@]1(OC(=O)c1ccco1)C(=O)CCl`, the IC50 was > 10 µM (inactive).

Regarding `Clc1ccc(CO/N=C(\Cn2ccnc2)c2ccc(Cl)cc2Cl)c(Cl)c1`, the IC50 is 8.85 µM (inactive).

With `Cc1ccc2c(Br)cc(Br)c(O)c2n1`, the IC50 was > 10 µM (inactive).

As for `Clc1ccc(Nc2nnc(Cc3ccncc3)c3ccccc23)cc1`, the IC50 is > 10 µM (inactive).

With `NC(=O)c1cccnc1`, the IC50 is > 10 µM (inactive).

As for `CCOC(=O)[C@H](CCc1ccccc1)N[C@@H](C)C(=O)N1Cc2cc(OC)c(OC)cc2C[C@H]1C(=O)O`, the IC50 is > 10 µM (inactive).

In the case of `OC[C@H]1O[C@@H](n2cnc3c(=S)nc[nH]c32)[C@H](O)[C@@H]1O`, the IC50 is > 10 µM (inactive).

Consider `CCCSc1ccc2nc(NC(=O)OC)[nH]c2c1`, for which the IC50 was > 10 µM (inactive).

In the case of `Nc1nc(=O)n([C@@H]2O[C@H](CO)[C@@H](O)[C@@H]2F)cc1I`, the IC50 is > 10 µM (inactive).

Consider `O=C(Nc1ccc(S(=O)(=O)N2CCOCC2)cc1)c1cc(Cl)ccc1NS(=O)(=O)c1ccc(Cl)s1`, for which the IC50 was > 10 µM (inactive).

As for `C#C[C@]1(OC(C)=O)CC[C@H]2[C@@H]3CCC4=C/C(=N/O)CC[C@@H]4[C@H]3CC[C@@]21CC`, the IC50 is > 10 µM (inactive).

With `O=C(CCN1CCC(c2ccccc2)C1)c1ccc2c(c1)OCCO2` (centres undefined), the IC50 is > 10 µM (inactive).

Turning to `Nc1ncn([C@@H]2O[C@H](CO)[C@@H](O)[C@H]2O)c(=O)n1`, the IC50 is > 10 µM (inactive).

As to `COc1ccc2cc1Oc1ccc(cc1)C[C@H]1c3c(cc4c(c3Oc3cc5c(cc3OC)CCN(C)[C@@H]5C2)OCO4)CCN1C`, the IC50 was > 10 µM (inactive).

For the compound `CCC(C)(C)C(=O)O[C@H]1C[C@@H](C)C=C2C=C[C@H](C)[C@H](CC[C@@H]3C[C@@H](O)CC(=O)O3)[C@H]21`, the IC50 was 5.13 µM (inactive).

In the case of `Cc1ccc(C(=O)Oc2ccc(C(O)CNC(C)(C)C)cc2OC(=O)c2ccc(C)cc2)cc1` (centres undefined), the IC50 was > 10 µM (inactive).
